Reference: patent US8585782B2, “Use of specific bis(biphenyl)triazine derivatives and mixtures thereof as UV absorbers” (BASF SE, priority 2010, dated 2013)

Assay: Measurement of solubility in capric/caprylic triglyceride
Format: physicochemical
Settings: commercial triazine derivatives, state-of-the-art comparison

SMILES	solubility in the cosmetic oil capric/caprylic triglyceride [%]
CCCCC(CC)COC(=O)c1ccc(Nc2nc(Nc3ccc(C(=O)OCC(CC)CCCC)cc3)nc(Nc3ccc(C(=O)OCC(CC)CCCC)cc3)n2)cc1 (centres unmarked) [EHT, Ethylhexyl Triazone]	3
CCCCC(CC)COc1ccc(-c2nc(-c3ccc(OC)cc3)nc(-c3ccc(OCC(CC)CCCC)cc3O)n2)c(O)c1 (centres unmarked) [Tinosorb S]	6
